In the supplement of paper PMC11061612:

How the values were obtained:
ACHN (Kidney Carcinoma) = assay: Bliss excess, mean over the matrix (fraction); higher = more synergy
Summary of the method: (§1)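 After 24 hours at 37°C and 5% CO2 in 1536-well plates, cells in DMEM/F12 or RPMI plus 10% FBS received two-drug dose matrices for 72 hours. Viability came from CellTiter-Glo 2.0 luminescence and was scaled as inhibition, anchored at 0 by vehicle wells and at 1 by blank wells. Combination Emax is taken as the second-highest inhibition in the matrix, and Bliss excess as the observed combination effect less EA + EB − EA·EB, with EA and EB the single-agent effects.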

[1] = system: BT-549 (Breast Carcinoma); assay: as above
Summary of the method: as §1

[2] = system: Ca9-22 (Head and Neck Carcinoma); assay: as above
Summary of the method: as §1

[3] = system: Caov-4 (Ovarian Carcinoma); assay: as above
Summary of the method: as §1

EW-24 (Ewing's Sarcoma) = assay: as above
Summary of the method: as §1

[4] = system: LU-65 (Non-Small Cell Lung Carcinoma); assay: as above
Summary of the method: as §1

NB69 (Neuroblastoma) = assay: as above
Summary of the method: as §1

TGW (Neuroblastoma) = assay: as above
Summary of the method: as §1

TK10 (Kidney Carcinoma) = assay: as above
Summary of the method: as §1

YH-13 (Glioblastoma) = assay: as above
Summary of the method: as §1

[5] = system: C-4-I (Cervical Carcinoma); assay: combination Emax (second highest fraction inhibited in the dose matrix, 72 h); higher = more inhibition; extreme values may be limits of the assay
Summary of the method: as §1

[6] = system: HGC-27 (Gastric Carcinoma); assay: as above
Summary of the method: as §1

[7] = system: HOP-62 (Lung Adenocarcinoma); assay: as above
Summary of the method: as §1

[8] = system: JVM-3 (B-Cell Non-Hodgkin's Lymphoma); assay: as above
Summary of the method: as §1

[9] = system: KMOE-2 (Acute Myeloid Leukemia); assay: as above
Summary of the method: as §1

[10] = system: NEC8 (Other Solid Carcinomas); assay: as above
Summary of the method: as §1

[11] = system: NUGC-3 (Gastric Carcinoma); assay: as above
Summary of the method: as §1

[12] = system: OVCAR-4 (Ovarian Carcinoma); assay: as above
Summary of the method: as §1

[13] = system: TE-1 (Esophageal Squamous Cell Carcinoma); assay: as above
Summary of the method: as §1

[14] = system: VA-ES-BJ (Other Solid Carcinomas); assay: as above
Summary of the method: as §1
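For Bliss excess, mean over the matrix in this document: after 72 h of two-drug dosing.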

SMILES	Bliss excess (ACHN (Kidney Carcinoma))	Bliss excess [1]	Bliss excess [2]	Bliss excess [3]	Bliss excess (EW-24 (Ewing's Sarcoma))	Bliss excess [4]	Bliss excess (NB69 (Neuroblastoma))	Bliss excess (TGW (Neuroblastoma))	Bliss excess (TK10 (Kidney Carcinoma))	Bliss excess (YH-13 (Glioblastoma))	combination Emax [5]	combination Emax [6]	combination Emax [7]	combination Emax [8]	combination Emax [9]	combination Emax [10]	combination Emax [11]	combination Emax [12]	combination Emax [13]	combination Emax [14]
CN(CCO)CC[C@H](CSc1ccccc1)Nc1ccc(S(=O)(=O)NC(=O)c2ccc(N3CCC([C@@H](O)c4ccccc4-c4ccc(Cl)cc4)CC3)cc2)cc1S(=O)(=O)C(F)(F)F [AZD4320] + C[C@@H]1COCCN1C2=NC(=NC(=C2)C3(CC3)[S@](=N)(=O)C)C4=C5C=CNC5=NC=C4 [AZD6738] (first compound max 1 µM, 7x7, partner max 10 µM)	-0.0099	-0.0239	0.0001	-0.027	0.0267	-0.0092	-0.0533	-0.0629	-0.0797	-0.0035	0.952	0.812	0.599	0.993	0.938	0.904	0.756	0.794	0.742	0.863
CN(CCO)CC[C@H](CSc1ccccc1)Nc1ccc(S(=O)(=O)NC(=O)c2ccc(N3CCC([C@@H](O)c4ccccc4-c4ccc(Cl)cc4)CC3)cc2)cc1S(=O)(=O)C(F)(F)F [AZD4320] + C[C@@H](Nc1cc(F)cc(F)c1)c1cc(C(=O)N(C)C)cc2c(=O)cc(N3CCOCC3)oc12 [AZD8186] (first compound max 1 µM, 7x7, partner max 3 µM)	0.0163	-0.0156	-0.0194	0.0112	-0.0214	-0.0216	-0.0381	-0.027	-0.032	0.0513	0.611	0.64	0.602	1	0.887	0.341	0.777	0.322	0.532	0.296
CN(CCO)CC[C@H](CSc1ccccc1)Nc1ccc(S(=O)(=O)NC(=O)c2ccc(N3CCC([C@@H](O)c4ccccc4-c4ccc(Cl)cc4)CC3)cc2)cc1S(=O)(=O)C(F)(F)F [AZD4320] + Cc1cc2ncnn2cc1Nc1ncc2c(n1)n(C1CCOCC1)c(=O)n2C [AZD7648] (first compound max 1 µM, 7x7, partner max 10 µM)	-0.0186	-0.0213	-0.0039	-0.0277	-0.0171	-0.007	-0.0649	0.0125	-0.014	-0.0186	0.132	0.473	0.167	0.916	0.896	0.159	0.347	0.127	0.38	0.174
CN(CCO)CC[C@H](CSc1ccccc1)Nc1ccc(S(=O)(=O)NC(=O)c2ccc(N3CCC([C@@H](O)c4ccccc4-c4ccc(Cl)cc4)CC3)cc2)cc1S(=O)(=O)C(F)(F)F [AZD4320] + Cn1cnc2c(F)c(Nc3ccc(Br)cc3Cl)c(C(=O)NOCCO)cc21 [Selumetinib] (first compound max 1 µM, 7x7, partner max 3 µM)	0.0429	-0.0231	0.0415	0.0418	-0.0352	0.0176	-0.0973	0.0147	-0.0867	-0.0219	0.52	0.381	0.536	1	1	0.341	0.762	0.381	0.554	0.203
Cc1cc2ncnn2cc1Nc1ncc2c(n1)n(C1CCOCC1)c(=O)n2C [AZD7648] + C=CCn1c(=O)c2cnc(Nc3ccc(N4CCN(C)CC4)cc3)nc2n1-c1cccc(C(C)(C)O)n1 [AZD1775] (first compound max 10 µM, partner max 1 µM)	-0.0178	-0.0348	0.022	0.0222	-0.0294	-0.0027	-0.0504	-0.0505	0.0668	0.0076	0.899	0.771	0.241	0.904	0.924	0.123	0.587	0.607	0.621	0.453
Cc1cc2ncnn2cc1Nc1ncc2c(n1)n(C1CCOCC1)c(=O)n2C [AZD7648] + CCN(CCO)CCCOc1ccc2c(Nc3cc(CC(=O)Nc4cccc(F)c4)[nH]n3)ncnc2c1 [AZD2811] (first compound max 10 µM, 7x7, partner max 1 µM)	-0.0051	0.013	0.0541	0.0293	-0.0051	0.0057	-0.0195	0.0148	0.0024	-0.0762	0.298	0.856	0.204	0.592	0.297	0.0355	0.418	0.285	0.246	0.346
Cc1cc2ncnn2cc1Nc1ncc2c(n1)n(C1CCOCC1)c(=O)n2C [AZD7648] + CN(C)CCCOc1ccc(-c2ccc3ncc4c(c3c2)n(C2CCOCC2)c(=O)n4C)cn1 [AZD0156] (first compound max 10 µM, 7x7, partner max 1 µM)	0.0104	0.0101	0.0625	0.0511	-0.0643	0.0053	-0.0382	0.0804	0.013	-0.0263	0.211	0.611	0.144	0.638	0.213	0.0719	0.296	0.185	0.19	0.225
Cc1cc2ncnn2cc1Nc1ncc2c(n1)n(C1CCOCC1)c(=O)n2C [AZD7648] + C[C@@H]1COCCN1C2=NC(=NC(=C2)C3(CC3)[S@](=N)(=O)C)C4=C5C=CNC5=NC=C4 [AZD6738] (first compound max 10 µM, 7x7, partner max 10 µM)	-0.0316	0.0207	0.0578	0.0087	-0.0023	-0.0392	0.0172	0.0388	0.0062	0.0821	0.929	0.849	0.435	0.809	0.586	0.7	0.665	0.737	0.414	0.73
Cc1cc2ncnn2cc1Nc1ncc2c(n1)n(C1CCOCC1)c(=O)n2C [AZD7648] + O=C(c1cc(Cc2n[nH]c(=O)c3ccccc23)ccc1F)N1CCN(C(=O)C2CC2)CC1 [Olaparib] (first compound max 10 µM, 7x7, partner max 10 µM)	-0.0243	-0.0487	-0.0072	-0.015	-0.0449	-0.0146	-0.0397	-0.0248	-0.0843	-0.0272	0.224	0.629	0.145	0.499	0.176	0.259	0.349	0.133	0.15	0.18
COc1cc2c(cc1OCCCCCOc1cc3c(cc1OC)C(=O)N1C=C(C)C[C@H]1C=N3)N=C[C@@H]1CC(C)=CN1C2=O [SG3199] + O=C(c1cc(Cc2n[nH]c(=O)c3ccccc23)ccc1F)N1CCN(C(=O)C2CC2)CC1 [Olaparib] (first compound max 0.001 µM, 7x7, partner max 10 µM)	-0.0192	-0.041	-0.0113	-0.0267	-0.0272	0.0047	-0.0102	-0.0446	-0.0646	-0.0282	0.184	0.464	0.118	0.335	0.0783	0.201	0.124	0.126	0.194	0.151
